{"source": "patent US10178866B2", "about": "“N-halamine containing fibrous compositions and uses thereof” (priority 2014, dated 2019)", "key": {"[1]": {"tested_on": "Staphylococcus aureus ATCC 6538", "assay": "sandwich test, wet wipes", "assay_type": "cell-based", "conditions": "contact time 1 min, inoculum 6.35", "protocol": "(§1) In the first test, CVS brand commercial wet wipes were first dried at 45° C. for 1 hour before impregnation with solutions of compound I. Different concentrations (wt %) of compound I were prepared in ethyl alcohol, and the wipes were soaked in the solutions for 5 minutes. After soaking in the solutions, each wipe was mounted between two filter papers, and a weight of 290 grams was placed uniformly over the stack. At the end of a 30 second period, the wet wipes were placed in closed vials to prevent further loss of solvent.\n(§2) For antibacterial testing, CVS brand commercial wipes were used as received as controls and wipes impregnated with compound I at a concentration of 1.0 wt % in ethyl alcohol were prepared as described above. […] After the plates were incubated at 37° C. for 24 hours, viable bacterial colonies were counted for the biocidal efficacy analysis."}, "[2]": {"tested_on": "Escherichia coli O157:H7 ATCC 43895", "assay": "sandwich test, wet wipes", "assay_type": "cell-based", "conditions": "contact time 1 min, inoculum 6.50", "protocol": "as §1, §2"}, "[3]": {"assay": "hydrolysis equilibrium / dissociation of compound I to free chlorine", "assay_type": "physicochemical"}, "Staphylococcus aureus": {"tested_on": "Staphylococcus aureus", "assay": "disinfection at low concentration in aqueous solution", "assay_type": "cell-based", "conditions": "25 mg/L in aqueous solution; dependent on pH", "excerpt": "In various embodiments provided herein, the N-halamine is 1-chloro-2,2,5,5-tetramethyl-4-imidazolidinone (“compound I”). Compound I is a stable N-halamine both in aqueous solution and in the solid state as long as it is not exposed to direct sunlight or extensive UV radiation. At ambient temperature, the hydrolysis equilibrium constant of compound I to produce its precursor 2,2,5,5-tetramethyl-4-imidazolidinone and “free chlorine” (HOCl) is lower than 10^−11. At low concentration in aqueous solution (e.g., 25 mg/L), long contact times (typically between 1-10 hours, dependent on pH) are required to obtain a 6-log reduction of Staphylococcus aureus. […] Furthermore, compound I is inexpensive and may be prepared according to the procedures described in U.S. Pat. No. 5,057,612, U.S. Pat. No. 5,126,057, or Tsao et al. (“Novel N-halamine Disinfectant Compounds,” Biotechnol. Prog., 1991; 7:60), the disclosures of all which are incorporated herein in their entirety."}, "solubility": {"assay": "solubility", "assay_type": "physicochemical", "conditions": "22° C.", "excerpt": "The precursor 2,2,5,5-tetramethyl-4-imidazolidinone can be prepared according to the method outlined in Tsao or in Worley based upon oxidation of the corresponding thione with hydrogen peroxide in basic solution. The thione can be prepared by the method of Christian (see “4-imidazolidinethiones,” J. Org. Chem., 1957; 22:396), which entails reaction of sodium cyanide, ammonium chloride, ammonium sulfide, and acetone in aqueous solution. […] Compound I in its pure form contains 20.1 percent by weight oxidative chlorine. […] However, the compound is much more soluble in ethyl or isopropyl alcohol, such that a solution greater than 5000 mg/L oxidative chlorine can easily be obtained."}, "[4]": {"assay": "storage (shelf-life) stability of oxidative chlorine on impregnated fabrics, iodometric/thiosulfate titration", "assay_type": "physicochemical", "conditions": "for Chlorine loading, dark storage / Chlorine loading, fluorescent light: 22 g/m^2 fabric, 22° C.", "protocol": "A modified iodometric/thiosulfate titration procedure was used to determine the active chlorine content on the fabrics impregnated with compound I (see, for example, Worley et al., “Novel N-halamine Siloxane Monomers and Polymers for Preparing Biocidal Coatings,” Surf Coat. Int., Part B, 2005; 88:93, herein incorporated by reference in its entirety). Cl^+% was calculated by the equation given below, where Cl^+% is the weight percent of the oxidative chlorine, N and V are\n[formula] the normality (equiv/L) and volume (L) of the Na2S2O3 (titrant), respectively, and W is the weight of the polypropylene fabric in grams.\nStorage or shelf-life stability of the impregnated 22 g/m^2 fabrics was evaluated in the instant example. Fabric samples were stored in a cabinet (e.g., a dark environment) without exposure to fluorescent light and on the laboratory bench (e.g., under fluorescent light) at room temperature. The stability of the chlorine content over time was measured for 24 weeks. The stabilities of the fabrics impregnated with compound I with a basis weight of 22 g/m^2 were determined at 22° C. by measuring the amount of remaining chlorine on the fabrics by using the standard iodometric/thiosulfate titration procedure."}}}
{"smiles": "CC1(C)NC(=O)C(C)(C)N1Cl", "note": "[Compound I, 1-chloro-2,2,5,5-tetramethyl-4-imidazolidinone]", "values": [{"measurement": "Bacterial Reduction (logs) S. aureus", "setting": "[1]", "result": 6.35, "unit": "logs"}, {"measurement": "Bacterial Reduction (logs) E. coli O157:H7", "setting": "[2]", "result": 6.5, "unit": "logs"}, {"measurement": "dissociation constant (chlorine release)", "setting": "[3]", "result": "lower than 10^−11"}, {"measurement": "hydrolysis equilibrium constant to produce 2,2,5,5-tetramethyl-4-imidazolidinone and free chlorine (HOCl)", "setting": "[3]; ambient temperature", "result": "lower than 10^−11"}, {"measurement": "contact time required to obtain a 6-log reduction", "setting": "Staphylococcus aureus", "result": "1-10 hours"}, {"measurement": "solubility in water", "setting": "solubility", "result": 1930, "unit": "µg/mL"}, {"measurement": "weight percent of oxidative chlorine under saturated conditions", "setting": "solubility; water", "result": 0.0388, "unit": "weight percent"}, {"measurement": "Chlorine loading, dark storage", "setting": "[4]; 2 weeks", "result": 0.37, "unit": "wt % Cl^+"}, {"measurement": "Chlorine loading, fluorescent light", "setting": "[4]; 2 weeks", "result": 0.05, "unit": "wt % Cl^+"}, {"measurement": "Chlorine loading, dark storage", "setting": "[4]; 3 weeks", "result": 0.40, "unit": "wt % Cl^+"}, {"measurement": "Chlorine loading, fluorescent light", "setting": "[4]; 3 weeks", "result": 0, "unit": "wt % Cl^+"}, {"measurement": "Chlorine loading, dark storage", "setting": "[4]; 5 weeks", "result": 0.37, "unit": "wt % Cl^+"}, {"measurement": "Chlorine loading, fluorescent light", "setting": "[4]; 5 weeks", "result": 0, "unit": "wt % Cl^+"}, {"measurement": "Chlorine loading, dark storage", "setting": "[4]; 8 weeks", "result": 0.40, "unit": "wt % Cl^+"}, {"measurement": "Chlorine loading, fluorescent light", "setting": "[4]; 8 weeks", "result": 0, "unit": "wt % Cl^+"}, {"measurement": "Chlorine loading, dark storage", "setting": "[4]; 12 weeks", "result": 0.42, "unit": "wt % Cl^+"}, {"measurement": "Chlorine loading, fluorescent light", "setting": "[4]; 12 weeks", "result": 0, "unit": "wt % Cl^+"}, {"measurement": "Chlorine loading, dark storage", "setting": "[4]; 24 weeks", "result": 0.41, "unit": "wt % Cl^+"}, {"measurement": "Chlorine loading, fluorescent light", "setting": "[4]; 24 weeks", "result": 0, "unit": "wt % Cl^+"}, {"measurement": "Chlorine loading, dark storage", "setting": "[4]; Initial", "result": 0.36, "unit": "wt % Cl^+"}, {"measurement": "Chlorine loading, fluorescent light", "setting": "[4]; Initial", "result": 0.40, "unit": "wt % Cl^+"}, {"measurement": "chlorine loss on storage", "setting": "[4]; fabrics exposed to fluorescent light, after 3 weeks of exposure", "result": "the remaining chlorine was lost"}, {"measurement": "chlorine loss on storage", "setting": "[4]; fabrics exposed to fluorescent light, within a 2 week time period", "result": "Almost all of the initial chlorine loading was lost"}, {"measurement": "chlorine loss on storage", "setting": "[4]; fabrics stored in dark environmental conditions, 6 month time period", "result": "no significant chlorine loss"}]}
